# Results reported in PubChem BioAssay (NCI).
#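 A five-concentration, 48-hour dose response in 96-well plates underlies each endpoint, interpolated linearly between surrounding concentrations. At the GI50, growth is halved. TGI denotes the concentration required for complete inhibition of growth.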
# Columns and labels:
# Test in all cases: NCI anticancer screen, dose series, 48 h
# A498 renal = system: A498 renal
# SK-MEL-2 melanoma = system: SK-MEL-2 melanoma
# DU-145 prostate = system: DU-145 prostate
# UO-31 renal = system: UO-31 renal
# UACC-257 melanoma = system: UACC-257 melanoma
# TK-10 renal = system: TK-10 renal
# UACC-62 melanoma = system: UACC-62 melanoma
# SF-295 CNS = system: SF-295 CNS
# SK-MEL-28 melanoma = system: SK-MEL-28 melanoma
# RXF 393 renal = system: RXF 393 renal
# CAKI-1 renal = system: CAKI-1 renal
# SN12C renal = system: SN12C renal
# SK-OV-3 ovarian = system: SK-OV-3 ovarian
# OVCAR-5 ovarian = system: OVCAR-5 ovarian
# SK-MEL-5 melanoma = system: SK-MEL-5 melanoma
# NCI/ADR-RES ovarian = system: NCI/ADR-RES ovarian
# EKVX NSCLC = system: EKVX NSCLC
# LOX IMVI melanoma = system: LOX IMVI melanoma
# SNB-75 CNS = system: SNB-75 CNS
# HL-60(TB) leukemia = system: HL-60(TB) leukemia
# SNB-19 CNS = system: SNB-19 CNS
# KM12 colon = system: KM12 colon
# MCF7 breast = system: MCF7 breast
# SF-268 CNS = system: SF-268 CNS
# IGROV1 ovarian = system: IGROV1 ovarian
# HCC-2998 colon = system: HCC-2998 colon
# NCI-H226 lung = system: NCI-H226 lung
# MDA-MB-231 breast = system: MDA-MB-231 breast
# HOP-92 NSCLC = system: HOP-92 NSCLC
# 786-0 renal = system: 786-0 renal
# CCRF-CEM leukemia = system: CCRF-CEM leukemia
# HCT-116 colon = system: HCT-116 colon
# HT29 colon = system: HT29 colon
# NCI-H522 lung = system: NCI-H522 lung
# MDA-MB-435 = system: MDA-MB-435
# BT-549 breast = system: BT-549 breast
# MOLT-4 leukemia = system: MOLT-4 leukemia
# T-47D breast = system: T-47D breast
# RPMI-8226 leukemia = system: RPMI-8226 leukemia
# K-562 leukemia = system: K-562 leukemia
# NCI-H23 lung = system: NCI-H23 lung
# HCT-15 colon = system: HCT-15 colon
# HS 578T breast = system: HS 578T breast
# SW-620 colon = system: SW-620 colon
# MALME-3M melanoma = system: MALME-3M melanoma
# OVCAR-4 ovarian = system: OVCAR-4 ovarian
# HOP-62 NSCLC = system: HOP-62 NSCLC
# NCI-H460 lung = system: NCI-H460 lung
# U251 CNS = system: U251 CNS
# OVCAR-8 ovarian = system: OVCAR-8 ovarian
# SR leukemia = system: SR leukemia
# PC-3 prostate = system: PC-3 prostate
# M14 melanoma = system: M14 melanoma
# SF-539 CNS = system: SF-539 CNS
# COLO 205 colon = system: COLO 205 colon
# A549 NSCLC = system: A549 NSCLC
# ACHN renal = system: ACHN renal
smiles,measurement,setting,value
N#Cc1c(-c2ccc(Cl)cc2)nc(SCc2ccc([N+](=O)[O-])cc2)nc1N1CCNCC1,GI50,A498 renal,1560 nM
same,TGI,A498 renal,2980 nM
same,GI50,SK-MEL-2 melanoma,1610 nM
same,TGI,SK-MEL-2 melanoma,3050 nM
same,GI50,DU-145 prostate,1730 nM
same,TGI,DU-145 prostate,3110 nM
same,GI50,UO-31 renal,1320 nM
same,TGI,UO-31 renal,2590 nM
same,GI50,UACC-257 melanoma,1620 nM
same,TGI,UACC-257 melanoma,3060 nM
same,GI50,TK-10 renal,1560 nM
same,TGI,TK-10 renal,2960 nM
same,GI50,UACC-62 melanoma,1690 nM
same,TGI,UACC-62 melanoma,3110 nM
same,GI50,SF-295 CNS,1780 nM
same,TGI,SF-295 CNS,3210 nM
same,GI50,SK-MEL-28 melanoma,1640 nM
same,TGI,SK-MEL-28 melanoma,3020 nM
same,GI50,RXF 393 renal,1540 nM
same,TGI,RXF 393 renal,2970 nM
same,GI50,CAKI-1 renal,1550 nM
same,TGI,CAKI-1 renal,2900 nM
same,GI50,SN12C renal,1770 nM
same,TGI,SN12C renal,3260 nM
same,GI50,SK-OV-3 ovarian,1780 nM
same,TGI,SK-OV-3 ovarian,3200 nM
same,GI50,OVCAR-5 ovarian,1560 nM
same,TGI,OVCAR-5 ovarian,2980 nM
same,GI50,SK-MEL-5 melanoma,1680 nM
same,TGI,SK-MEL-5 melanoma,3060 nM
CN(C)CCNC(=O)c1ccc(-c2nc3ccc4[nH]ncc4c3c3c2COCC3)cc1,GI50,NCI/ADR-RES ovarian,24100 nM
same,TGI,NCI/ADR-RES ovarian,> 100000 nM
same,GI50,EKVX NSCLC,2170 nM
same,TGI,EKVX NSCLC,12800 nM
same,GI50,LOX IMVI melanoma,465 nM
same,TGI,LOX IMVI melanoma,1850 nM
same,GI50,SNB-75 CNS,382 nM
same,TGI,SNB-75 CNS,1460 nM
same,GI50,HL-60(TB) leukemia,1300 nM
same,TGI,HL-60(TB) leukemia,4880 nM
same,GI50,SNB-19 CNS,587 nM
same,TGI,SNB-19 CNS,7470 nM
same,GI50,KM12 colon,955 nM
same,TGI,KM12 colon,5260 nM
same,GI50,MCF7 breast,293 nM
same,TGI,MCF7 breast,7660 nM
same,GI50,A498 renal,1190 nM
same,TGI,A498 renal,2810 nM
same,GI50,SK-MEL-2 melanoma,360 nM
same,TGI,SK-MEL-2 melanoma,1120 nM
same,GI50,SF-268 CNS,292 nM
same,TGI,SF-268 CNS,1820 nM
same,GI50,IGROV1 ovarian,1280 nM
same,TGI,IGROV1 ovarian,9200 nM
same,GI50,DU-145 prostate,1490 nM
same,TGI,DU-145 prostate,8680 nM
same,GI50,UO-31 renal,6750 nM
same,TGI,UO-31 renal,62400 nM
same,GI50,HCC-2998 colon,1080 nM
same,TGI,HCC-2998 colon,3240 nM
same,GI50,NCI-H226 lung,1240 nM
same,TGI,NCI-H226 lung,7140 nM
same,GI50,MDA-MB-231 breast,791 nM
same,TGI,MDA-MB-231 breast,5000 nM
same,GI50,UACC-257 melanoma,2410 nM
same,TGI,UACC-257 melanoma,8170 nM
same,GI50,TK-10 renal,1450 nM
same,TGI,TK-10 renal,7130 nM
same,GI50,UACC-62 melanoma,767 nM
same,TGI,UACC-62 melanoma,2570 nM
same,GI50,HOP-92 NSCLC,1000 nM
same,TGI,HOP-92 NSCLC,5860 nM
same,GI50,786-0 renal,2050 nM
same,TGI,786-0 renal,9430 nM
same,GI50,CCRF-CEM leukemia,374 nM
same,TGI,CCRF-CEM leukemia,50400 nM
same,GI50,HCT-116 colon,367 nM
same,TGI,HCT-116 colon,11300 nM
same,GI50,HT29 colon,2050 nM
same,TGI,HT29 colon,6990 nM
same,GI50,NCI-H522 lung,188 nM
same,TGI,NCI-H522 lung,372 nM
same,GI50,SF-295 CNS,3270 nM
same,TGI,SF-295 CNS,16000 nM
same,GI50,MDA-MB-435,677 nM
same,TGI,MDA-MB-435,2150 nM
same,GI50,SK-MEL-28 melanoma,1280 nM
same,TGI,SK-MEL-28 melanoma,3940 nM
same,GI50,RXF 393 renal,239 nM
same,TGI,RXF 393 renal,1040 nM
same,GI50,CAKI-1 renal,1200 nM
same,TGI,CAKI-1 renal,12700 nM
same,GI50,BT-549 breast,624 nM
same,TGI,BT-549 breast,2370 nM
same,GI50,MOLT-4 leukemia,604 nM
same,TGI,MOLT-4 leukemia,5210 nM
same,GI50,T-47D breast,750 nM
same,TGI,T-47D breast,> 100000 nM
same,GI50,RPMI-8226 leukemia,2170 nM
same,TGI,RPMI-8226 leukemia,7310 nM
same,GI50,SN12C renal,1000 nM
same,TGI,SN12C renal,5400 nM
same,GI50,K-562 leukemia,740 nM
same,TGI,K-562 leukemia,> 100000 nM
same,GI50,NCI-H23 lung,1240 nM
same,TGI,NCI-H23 lung,3310 nM
same,GI50,SK-OV-3 ovarian,1060 nM
same,TGI,SK-OV-3 ovarian,28500 nM
same,GI50,OVCAR-5 ovarian,3010 nM
same,TGI,OVCAR-5 ovarian,28200 nM
same,GI50,HCT-15 colon,10800 nM
same,TGI,HCT-15 colon,> 100000 nM
same,GI50,HS 578T breast,523 nM
same,TGI,HS 578T breast,3580 nM
same,GI50,SW-620 colon,527 nM
same,TGI,SW-620 colon,4880 nM
same,GI50,MALME-3M melanoma,786 nM
same,TGI,MALME-3M melanoma,2690 nM
same,GI50,SK-MEL-5 melanoma,2270 nM
same,TGI,SK-MEL-5 melanoma,6210 nM
same,GI50,OVCAR-4 ovarian,1850 nM
same,TGI,OVCAR-4 ovarian,8910 nM
same,GI50,HOP-62 NSCLC,1100 nM
same,TGI,HOP-62 NSCLC,4070 nM
same,GI50,NCI-H460 lung,2200 nM
same,TGI,NCI-H460 lung,5460 nM
same,GI50,U251 CNS,659 nM
same,TGI,U251 CNS,16300 nM
same,GI50,OVCAR-8 ovarian,1230 nM
same,TGI,OVCAR-8 ovarian,11100 nM
same,GI50,SR leukemia,301 nM
same,TGI,SR leukemia,2250 nM
same,GI50,PC-3 prostate,1120 nM
same,TGI,PC-3 prostate,8120 nM
same,GI50,M14 melanoma,1370 nM
same,TGI,M14 melanoma,3270 nM
same,GI50,SF-539 CNS,512 nM
same,TGI,SF-539 CNS,2210 nM
same,GI50,COLO 205 colon,480 nM
same,TGI,COLO 205 colon,2050 nM
same,GI50,A549 NSCLC,3180 nM
same,TGI,A549 NSCLC,> 100000 nM
same,GI50,ACHN renal,2850 nM
same,TGI,ACHN renal,21700 nM
